Experimental data as given in publication PMC3145672, “X-Ray Structure Reveals a New Class and Provides Insight into Evolution of Alkaline Phosphatases” (PLoS ONE, 2011).

Molecular target: T1, SPAP (Sphingomonas sp., UniProt A1YYW7)
T1 construct: gene phoK; recombinant in E. coli, Ni-NTA purified; precursor 559 residues, predicted signal peptide 1-19; residues 31-556 visible in crystal; active monomer, 58 kD by SEC
T1 sequence (A1YYW7 20-559): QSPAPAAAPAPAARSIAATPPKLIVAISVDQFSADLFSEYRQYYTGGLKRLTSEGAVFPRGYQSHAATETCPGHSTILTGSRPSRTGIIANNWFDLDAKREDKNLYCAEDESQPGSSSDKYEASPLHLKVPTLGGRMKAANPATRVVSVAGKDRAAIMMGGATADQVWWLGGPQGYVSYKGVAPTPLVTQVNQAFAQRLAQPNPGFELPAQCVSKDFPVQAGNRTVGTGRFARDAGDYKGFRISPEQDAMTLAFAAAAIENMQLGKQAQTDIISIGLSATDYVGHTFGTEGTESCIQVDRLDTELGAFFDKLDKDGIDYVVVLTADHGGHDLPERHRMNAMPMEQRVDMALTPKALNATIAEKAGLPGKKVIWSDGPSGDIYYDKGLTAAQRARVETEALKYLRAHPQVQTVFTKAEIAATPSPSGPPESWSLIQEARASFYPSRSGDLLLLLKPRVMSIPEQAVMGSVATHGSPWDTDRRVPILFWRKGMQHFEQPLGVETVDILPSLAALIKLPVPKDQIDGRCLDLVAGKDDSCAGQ
Experiment: release of pNP at […] nm
Type: biochemical
Conditions: pH 8.5, room temperature; size exclusion chromatography fraction

SMILES: O=[N+]([O-])c1ccc(OP(=O)(O)O)cc1 [pNPP]
- release of pNP at 405 nm: Catalytic activity of eluted SPAP fraction was checked, at room temperature
